Test results as given in patent US7939292B2, “Modified heparinase III and methods of sequencing therewith” (Massachusetts Institute of Technology, priority 2000, dated 2011).

Assays:
Type in all cases: biochemical, Flavobacterium heparinum
[1] = target: T1, heparinase III (Pedobacter heparinus, UniProt Q59289); test: DEPC inactivation of heparinase III (UV 232 nm activity assay)
T1 construct: compared to the native heparinase III isolated directly from Flavobacterium heparinum; purchased IBEX Technologies (Montreal, Canada), received as a gift rather than bought; host or cells: Flavobacterium heparinum (natural producer)
T1 sequence (Q59289 25-659): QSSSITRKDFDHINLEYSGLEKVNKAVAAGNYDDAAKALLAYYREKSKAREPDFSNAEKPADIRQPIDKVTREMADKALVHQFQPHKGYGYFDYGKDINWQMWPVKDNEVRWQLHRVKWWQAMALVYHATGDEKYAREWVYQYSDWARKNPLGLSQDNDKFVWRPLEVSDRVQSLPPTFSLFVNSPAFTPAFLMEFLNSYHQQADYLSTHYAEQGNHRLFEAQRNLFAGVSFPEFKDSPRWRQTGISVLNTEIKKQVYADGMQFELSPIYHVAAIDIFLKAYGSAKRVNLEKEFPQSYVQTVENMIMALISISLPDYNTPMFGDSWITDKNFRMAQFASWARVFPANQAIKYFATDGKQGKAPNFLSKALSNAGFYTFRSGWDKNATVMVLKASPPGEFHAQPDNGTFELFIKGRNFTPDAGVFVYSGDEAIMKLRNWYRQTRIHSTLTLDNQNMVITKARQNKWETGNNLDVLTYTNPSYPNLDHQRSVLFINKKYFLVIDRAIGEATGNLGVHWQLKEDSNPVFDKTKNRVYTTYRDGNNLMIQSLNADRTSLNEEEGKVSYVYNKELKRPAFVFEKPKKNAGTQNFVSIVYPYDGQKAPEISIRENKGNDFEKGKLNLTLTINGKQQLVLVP
Experimental: The activity of heparinase III was measured using a UV 232 nm assay similar to those reported for heparinase I and heparinase II (Godavarti, R., Cooney, C. L., Langer, R., and Sasisekharan, R. (1996) Biochemistry 35, 6846-52; Shriver, Z., Hu, Y., and Sasisekharan, R. (1998) J. Biol. Chem. 273, 10160-67; and Lohse, D. and Linhardt, R. J. (1992) J. Biol. Chem. 267, 781-87). Briefly, the increase in absorbance at 232 nm as a function of time was monitored under saturating substrate conditions. All assays were performed with heparan sulfate at a concentration of 2 mg/ml in 50 mM sodium phosphate, pH 7.6. The temperature for enzymatic activity measurements was kept constant at 35° C.
(A) DEPC Inactivation of Heparinase III. At pH values ranging from 6.0 to 8.0, heparinase III (50 μg/mL) was incubated with DEPC in 50 mM sodium phosphate buffer at 25° C. The DEPC stock solution (6.9 M) was diluted with ethanol. […] At each pH, three reactions were run using different concentrations of DEPC, ranging from 50 μM to 2.5 mM. At fixed time intervals, 25 μL aliquots were withdrawn from the reaction mixtures for the UV 232 nm activity assay.
The kinetics of DEPC inactivation of heparinase III was determined by plotting the natural log of percent activity versus an adjusted time term (to account for the decomposition of DEPC). Briefly, this adjusted time term (t′) was calculated according to the following equation: […]
In this equation, k′ is the first order rate constant for DEPC hydrolysis and t is the measured time after addition of DEPC to the heparinase III solution. At each pH, the order of the reaction in DEPC was determined by plotting the observed rate constants of inactivation at each pH vs. log [DEPC]. The slope of this graph is n, the order of the reaction with respect to DEPC (Lundblad, R. (1995) Techniques in Protein Modification, CRC Press, Boca Raton).
Heparinase III was incubated with 0.31 (□), 0.54 (●), 0.97 (◯), 1.5 (▴), 1.9 (Δ) mM DEPC at pH 6.5 and at 25° C. (shown in inset of FIG. 1). […]

[2] = target: T1, heparinase III; test: Reactivation of DEPC-modified enzyme with hydroxylamine; set-up: Activity (%): concentration or dose not given beside the values
Experimental: (B) Reactivation of DEPC-Modified Enzyme with Hydroxylamine. Similar to what was completed with heparinase I and II (Godavarti, R., Cooney, C. L., Langer, R., and Sasisekharan, R. (1996) Biochemistry 35, 6846-52 and Shriver, Z., Hu, Y., and Sasisekharan, R. (1998) J. Biol. Chem. 273, 10160-67), heparinase III (50 μg/mL) was incubated with 0.97 mM DEPC, pH 6.5 until its enzymatic activity was reduced to 50% of its initial value. […] The reaction was incubated at room temperature for 6 hours. Aliquots were withdrawn every hour for the activity assay. The control mixture contained no DEPC but the same concentration of hydroxylamine to account for the loss of nonspecific activity. The ratio of the activity of the reaction mixture over the activity of the control was calculated to determine recovery of enzymatic activity.

[3] = target: T1, heparinase III; test: Quantification of histidines modified by DEPC (240 nm) with activity check
Experimental: (D) Quantification of the Number of Histidines Modified by DEPC. The extent of modification of an enzyme by DEPC can be determined by monitoring the formation of the N-carbethoxylhistidyl adduct at 240 nm. At time zero, 1.5 mM DEPC was added to the cuvette containing heparinase III in sodium phosphate buffer, pH 7.0. The change in absorbance at 240 nm was monitored every minute for 10 min. The number of modified residues was determined using a molar extinction coefficient of 3,200 M^−1cm^−1 (Lundblad, R. (1995) Techniques in Protein Modification, CRC Press, Boca Raton).
At time zero, 1.5 mM DEPC was added to a cuvette containing heparinase III (540 μg/mL) in sodium phosphate buffer, pH 7.0. The change in absorbance at 240 nm was monitored at time intervals for 10 min. The number of modified histidines was calculated using a ε=3200 M^−1cm^−1. At the beginning and end of the experiment, aliquots of heparinase III were withdrawn and tested for activity. Less than 5% of initial activity remained after 10 minutes incubation with DEPC.

[4] = target: T1, heparinase III; test: Substrate protection of heparinase III against DEPC inactivation; details: 2 mg/mL heparan sulfate 30 min before 1.5 mM DEPC
Experimental: (C) Substrate Protection of Heparinase III against DEPC Inactivation. Heparinase III (50 μg/mL) was pre-incubated with 2 mg/mL heparan sulfate in 50 mM sodium phosphate, pH 7.6 for 30 minutes prior to the addition of 1.5 mM DEPC. A control reaction with no prior incubation of substrate was also completed. The time course of inactivation for both was determined using the heparinase III activity assay.
Substrate protection of heparinase III inactivation by DEPC was also assessed (FIG. 4). Heparinase III (50 μg/mL) was incubated with 2 mg/mL heparan sulfate for 30 min. 1.5 mM DEPC was added to the reaction and time course of inactivation was completed using the heparinase III activity assay (O). A control reaction without pre-incubation with heparan sulfate was also done (□).

SMILES: CCOC(=O)OC(=O)OCC [DEPC, diethylpyrocarbonate]
- inhibition of heparinase III [1]: inhibit in a dose-dependent fashion
- kinact/KI ([1]; 0.31-1.9 mM DEPC, pH 6.5, 25° C., read-out: second-order rate constant of inactivation (converted)): 3.33 M⁻¹ s⁻¹
- order of the reaction in DEPC (slope of kinact vs. log [DEPC]) ([1]; pH 6.5): 1
- activity at 970 µM ([2]; Time 0 min after hydroxylamine, 0.97 mM DEPC, pH 6.5): 51%
- Activity (%) ([2]; Time 30 min after hydroxylamine): 60%
- Activity (%) ([2]; Time 60 min after hydroxylamine): 66%
- Activity (%) ([2]; Time 90 min after hydroxylamine): 72%
- Activity (%) ([2]; Time 180 min after hydroxylamine): 76%
- Activity (%) ([2]; Time 240 min after hydroxylamine): 78%
- Activity (%) ([2]; Time 360 min after hydroxylamine): 80%
- reversibility of DEPC modification ([2]; incubation with 300 mM hydroxylamine): 90%
- histidines modified per enzyme molecule ([3]; 1.5 mM DEPC, pH 7.0, 10 minutes): 1.8
- remaining activity at 1500 µM ([3]; after 10 minutes incubation with 1.5 mM DEPC, pH 7.0, read-out: initial activity remaining): < 5%
- inactivation kinetics after preincubation with heparan sulfate [4]: lower inactivation kinetics
